Assay results as given in patent US10028992B2, “Methods of treating muscular dystrophy” (BOARD OF REGENTS OF THE NEVADA SYSTEM OF HIGHER EDUCATION …, priority 2012, dated 2018).

Tested on: α7 integrin promoter
Experiment: muscle cell-based assay: α7βgal+/− myoblasts/myotubes, LacZ reporter, β-galactosidase cleavage of FDG
Parameters: species or system mouse
Settings: Myotubes; for Results in a α7+/− β-galactosidase assay, Myotubes, 0.5 uM: compound at 0.5 uM; for Results in a α7+/− β-galactosidase assay, Myotubes, 1 uM: compound at 1 uM; for Results in a α7+/− β-galactosidase assay, Myotubes, 5 uM: compound at 5 uM; for Results in a α7+/− β-galactosidase assay, Myotubes, 10 uM: compound at 10 uM; for Results in a α7+/− β-galactosidase assay, Myotubes, 20 uM: compound at 20 uM; for Results in a α7+/− β-galactosidase assay, Myotubes, 40 uM: compound at 40 uM
In short: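 Fluorescein generated from FDG by β-galactosidase reports α7 integrin promoter activity in differentiated myoblasts from α7+/− LacZ knock-in pups. Screening hits then went to dose-response, western blotting and a myostatin counterscreen.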

| SMILES | Results in a α7+/− β-galactosidase assay, Myotubes, 0.5 uM | Results in a α7+/− β-galactosidase assay, Myotubes, 1 uM | Results in a α7+/− β-galactosidase assay, Myotubes, 5 uM | Results in a α7+/− β-galactosidase assay, Myotubes, 10 uM | Results in a α7+/− β-galactosidase assay, Myotubes, 20 uM | Results in a α7+/− β-galactosidase assay, Myotubes, 40 uM |
| --- | --- | --- | --- | --- | --- | --- |
| Cc1ccccc1NC(=O)c1ccc2c(O)c(Sc3ccccc3)c(=O)[nH]c2c1 [drawing 426] | −0.06746 | −0.07688 | −0.09733 | 0.01498 | −0.07909 | −0.1428 |
| Oc1nc(SCc2ccc(Cl)cc2)nc2ccsc12 [drawing 427] | 0.03102 | −0.01338 | −0.1454 | 0.05532 | −0.03447 | −0.1688 |
| CCn1c(=O)c2cc(C(=O)N(C)c3cc(C)ccc3OC)sc2c2ccccc21 [drawing 428] | −0.1274 | −0.01854 | −0.1965 | −0.1001 | −0.31 | −0.8047 |
| CCOC(=O)C1=C(NC(=O)c2ccc(OC)c(S(=O)(=O)N3CCCCC3C)c2)Nc2ccccc2N=C1CC (stereo not drawn) [drawing 429] | −0.08852 | 0.05126 | −0.2482 | −0.1853 | −0.1051 | −0.1944 |
| O=C(NCc1ccccc1)C(c1c(F)cccc1Cl)N(C(=O)c1csnn1)C1CC1 (stereo not drawn) [drawing 430] | 0.2226 | −0.02073 | −0.2107 | −0.07084 | −0.182 | −0.2594 |
| Cc1[nH]c2ccc(F)cc2c1CCN(Cc1ccco1)/C(S)=N/C(C)(C)C [drawing 431] | −0.02866 | −0.1703 | −0.1851 | −0.06955 | −0.543 | −0.807 |
| c1ccc(-c2cc(-c3nc4ccccc4[nH]3)c3ccccc3n2)cc1 [drawing 432] | −0.06598 | −0.05419 | −0.2722 | −0.06437 | −0.3184 | −0.5085 |
| CCC(C)n1nc(O)cc1N (stereo not drawn) [drawing 433] | 0.1351 | −0.05991 | −0.1063 | −0.1016 | −0.1631 | −0.144 |
| Cc1ccc(C(=O)N2CCN(S(=O)(=O)N3CCOCC3)CC2)cc1 [drawing 434] | −0.01141 | −0.169 | 0.007084 | 0.1108 | −0.2209 | 0.1179 |
| Cc1cccc(NC(=O)CN(C)C(=O)c2ccc(-c3ccc(Cl)cc3)o2)c1 [drawing 435] | −0.06415 | −0.0743 | −0.09532 | −0.1682 | −0.3693 | −0.5402 |
| Cc1ccccc1S(=O)(=O)N1C[C@H]2CON(C)[C@H]2C[C@H]1c1cccc(-c2ccccc2)c1 [drawing 436] | 0.01204 | 0.03174 | −0.2012 | −0.2418 | −0.3306 | −0.5892 |
| N#C/C(=C/c1ccc(N2CCOCC2)o1)C(=O)Nc1ccccc1 [drawing 437] | −0.01316 | 0.1058 | −0.1378 | −0.06524 | 0.007978 | −0.03236 |
